Reference: BindingDB's records for doi:10.1016/j.bmcl.2010.09.117 (University of London, 2010)

Biological target: Signal transducer and activator of transcription 3 (Homo sapiens, UniProt P40763)
Assay: Inhibition of STAT3 in human HeLa cells by luciferase reporter assay

Sequence of Signal transducer and activator of transcription 3 (P40763 whole entry): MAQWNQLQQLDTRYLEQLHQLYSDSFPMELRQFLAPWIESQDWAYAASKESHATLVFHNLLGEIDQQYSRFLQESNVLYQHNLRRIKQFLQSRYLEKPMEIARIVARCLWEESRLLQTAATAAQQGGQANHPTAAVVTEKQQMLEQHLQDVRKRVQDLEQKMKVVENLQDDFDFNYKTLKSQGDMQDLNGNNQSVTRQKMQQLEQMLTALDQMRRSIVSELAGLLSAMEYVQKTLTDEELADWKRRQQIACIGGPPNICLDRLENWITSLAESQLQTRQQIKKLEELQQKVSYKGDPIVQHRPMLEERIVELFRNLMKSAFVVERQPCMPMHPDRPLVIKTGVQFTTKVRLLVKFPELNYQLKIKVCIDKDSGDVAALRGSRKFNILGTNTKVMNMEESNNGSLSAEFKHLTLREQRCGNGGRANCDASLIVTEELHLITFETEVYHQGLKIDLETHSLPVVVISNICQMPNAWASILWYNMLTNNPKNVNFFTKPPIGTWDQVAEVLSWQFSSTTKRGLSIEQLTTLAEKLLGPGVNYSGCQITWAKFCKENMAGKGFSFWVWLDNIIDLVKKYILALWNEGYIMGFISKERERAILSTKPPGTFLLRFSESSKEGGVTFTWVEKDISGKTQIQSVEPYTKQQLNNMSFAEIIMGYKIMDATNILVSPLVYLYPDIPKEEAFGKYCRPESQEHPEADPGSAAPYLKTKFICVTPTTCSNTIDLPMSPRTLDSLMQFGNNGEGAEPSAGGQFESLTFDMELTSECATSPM

Cc1ccc(-c2sc(C(=O)NCc3cccs3)cc2S(=O)(=O)N2CCCC2)cc1 [4-(pyrrolidin-1-ylsulfonyl)-N-(thiophen-2-ylmethyl)-5-p-tolylthiophene-2-carboxamide]
EC50: 15 µM
